# From PubChem BioAssay AID1996
# Settings: buffer; pH 7.4; 200.0 µM
row,Structure (SMILES),solubility kinetic [µg/mL]
1,COc1cc(S(=O)(=O)N2CCN(Cc3ccc4c(c3)OCO4)CC2)ccc1NC(C)=O.Cl,10.5
2,CN1CCN(S(=O)(=O)c2ccc([N+](=O)[O-])cc2)CC1,> 42.8
3,COc1ccc(C2NC(=O)c3ccccc3N2)cc1 (stereo unspecified),33.2
4,CCN(CC)CCCNC(=O)/C=C/C(=O)O,31.2
5,COc1ccc(N2C(=O)CSC2c2ccccc2)cc1 (stereo unspecified),42.3
6,CCOc1ccc(/C=C(\C)C(=O)c2c(C)cc(C)[nH]c2=O)cc1,38.3
7,COC1CCCCC1NCCc1ccccc1.O=C(O)C(=O)O (stereo unspecified),> 48.5
8,CCN(CCCl)Cc1ccccc1Br.Cl,42.1
9,CCOC(=O)C1CCCN(Cc2nc(CC3CC3)no2)C1 (stereo unspecified),40
10,CC1=NOC(=O)/C1=C/c1ccc(O)c(Cl)c1,> 35.6
11,O=C(CNS(=O)(=O)c1ccccc1)N1CCc2ccccc2C1,> 49.6
12,Cn1c(=O)c2cnc(-c3ccc(C(F)(F)F)cc3)nc2n(C)c1=O,< 0.2
13,O=C1CSC(c2ccccc2)N1c1ccc([N+](=O)[O-])cc1 (stereo unspecified),33.4
14,COc1cccc(C(=O)c2cc3cc(Cl)ccc3[nH]2)c1,< 0.6
15,Cc1ccc(N2CCN(CC(O)COc3ccccc3)CC2)cc1 (stereo unspecified),30.1
16,Cc1ccc(NC(=O)C23CCC(C)(C(=O)[C@H]2Br)C3(C)C)cc1 (stereo partly specified),43.2
17,Cc1cnc(NC(=O)CCN2C(=O)C3CCCCC3C2=O)s1 (stereo unspecified),39.3
18,CC(C)[C@H](NC(=O)c1ccccc1F)C(=O)NC1CCCCCCC1,7.5
19,COc1ccc2[nH]c(C(=O)N3CCc4ccccc4C3)c(C)c2c1,2.6
20,O=C(Nc1ccccc1)C1CCCCN1S(=O)(=O)c1ccccc1 (stereo unspecified),> 51.7
21,O=C(c1cc([N+](=O)[O-])ccc1Cl)N1CCc2ccccc21,1.6
22,COc1cccc(C(=O)C2CN(C)CC2c2ccc(Cl)cc2)c1 (stereo unspecified),> 49.5
23,Cl.N=c1ccn(Cc2ccc([N+](=O)[O-])cc2)cc1,> 39.9
24,O=C1Nc2ccc(Cl)cc2C12OCCCO2,3.2

row,Structure (SMILES),solubility kinetic [µg/mL]
1,Oc1cccc2ccc(/C=C/c3ccccc3Br)nc12,< 0.7
2,COc1ccc(S(=O)(=O)N2CCN(c3cnccn3)CC2)cc1,> 50.2
3,N#C/C(=C(/O)CO/N=C/c1ccccc1Cl)c1nc2ccccc2[nH]1,< 0.2
4,CC(=O)NC(=S)Nc1cc(C(=O)O)ccc1Cl,> 40.9
5,O=C(CNC(=O)c1ccc(Cl)cc1)c1ccc(Cl)cc1,9
6,Cc1ccc(Nc2c(-c3ccccc3)nc3cnccn23)cc1,1.1
7,Cc1c(C(=O)OCC(=O)Nc2ccc(C(=O)N(C)C)cc2)oc2ccccc12,6.6
8,O=C(/C=C/c1cccc([N+](=O)[O-])c1)c1ccco1,1.7
9,OCCN1CCN(c2cc(C(F)(F)F)nc3c(F)cccc23)CC1,48.5
10,C/C=C(\C)CN1CCCC(CO)(Cc2ccccc2)C1 (stereo unspecified),34.3
11,O=C(CN(c1ccccc1Cl)S(=O)(=O)c1ccccc1)NCc1ccccc1,18.7
12,CCOC(=O)C1CCN(Cc2ccc(O)c3ncccc23)CC1,1.6
13,CC(C)CCNCC(O)CON=C1c2ccccc2-c2ccccc21 (stereo unspecified),47.4
14,O=C(O)c1cc(S(=O)(=O)N2CCCCC2)ccc1N1CCOCC1,> 53.2
15,C=CCc1cc(/C=C2/NC(=O)N(CC(=O)OC)C2=O)cc(OC)c1O,11.9
16,CCOc1ccc(OCc2ccc(C(=O)NC(C)(C)C)o2)cc1,8.8
17,Cc1cc(C(=O)COC(=O)Cc2ccc(Br)cc2)c(C)n1C,15.2
18,CCOc1ncccc1C(=O)OCc1ccc([N+](=O)[O-])cc1,1.3
19,COc1ccc2[nH]c(C(=O)N3CCC(Cc4ccccc4)CC3)cc2c1,< 0.4
20,Cc1cc2oc(=O)cc(CN3CCCCC3C)c2cc1Cl (stereo unspecified),4.5
21,O=C(Nc1ccc(N2CCOCC2)cc1N1CCOCC1)c1ccccc1,> 55.1
22,CCN(CC)CC#CCC(O)(c1ccccc1)c1ccccc1,> 46.1
23,CN=C(c1ccco1)n1c(=S)nc(-c2ccco2)n(C)c1=S,39.6
24,O=C(NC1CC1)C1CCN(C(=O)c2ccccc2Cl)CC1,> 46

row,Structure (SMILES),solubility kinetic [µg/mL]
1,COc1ccc(-n2ccnc2)cc1,> 26.1
2,O=C(c1ccco1)N1CCN(CCOc2ccccc2)CC1,42.7
3,O=C(O)c1cccc2c3c([nH]c12)CCCC3,> 32.3
4,CCOC(=O)C1CCCN(S(=O)(=O)c2ccc(NC(C)=O)cc2)C1 (stereo unspecified),> 53.2
5,O=c1[nH]c(/C=C/c2ccccc2)c([N+](=O)[O-])c(=O)[nH]1,> 38.9
6,O=S(=O)(Nc1ccc2c(c1)OCCO2)c1c(F)cccc1F,47.8
7,O=C(CN1C(=O)NC2(CCCCC2)C1=O)N1CCOCC1,> 44.3
8,CC1CCCN(c2cc(N(C)CCO)c([N+](=O)[O-])c3nonc23)C1 (stereo unspecified),> 50.3
9,COc1ccc(CNC(=O)c2nccnc2CO)cc1,> 41
10,CN(C)C(=O)CS(=O)(=O)c1ccc(Cl)cc1,32.7
11,Cc1cc(NC(=O)c2c(C)noc2C)no1,> 33.2
12,CC1CC(C)CN(C(=O)c2ccc(C#N)cc2)C1 (stereo unspecified),> 36.3
13,COc1ccc(C)cc1S(=O)(=O)N1CCc2ccccc2C1,18.1
14,O=C1NCCN1CCNS(=O)(=O)c1ccc(F)c(Cl)c1,> 48.3
15,CC1CCCN1CC#CC(O)(c1ccccc1)c1ccccc1.Cl (stereo unspecified),46.9
16,Cc1cc(NC(=O)c2cccs2)ncc1NC(=O)C(C)C,> 45.5
17,CC(=O)Nc1ccc(C(=O)OCc2ccc(F)cc2Cl)cc1,1.7
18,CC(C)Oc1cccc(C2NC(=O)c3ccccc3O2)c1 (stereo unspecified),6.7
19,O=[N+]([O-])c1ccc(NS(=O)(=O)N2CCOCC2)cc1,> 43.1
20,Cc1ccc(NC(=O)c2cc3c(s2)CCCC3)cc1,4
21,COc1c(S(=O)(=O)Nc2cccnc2)ccc(Cl)c1Cl,30.8
22,COC(=O)CSc1nc(NC(C)(C)C)nc(N(C)C)n1,38.7
23,CC(=O)C1=C(O)C(=O)N(c2ccc(O)cc2)C1c1ccc(F)cc1 (stereo unspecified),> 49.1

# The remaining lines, values ahead:
row,solubility kinetic [µg/mL],Structure (SMILES)
1,> 39.7,CN(C)C(CNC(=O)c1cccs1)c1ccco1 (stereo unspecified)
2,> 50.5,O=C(Cc1ccccc1)c1c[nH]c(C(=O)NCCCn2ccnc2)c1
3,0.7,O=C(/C=C/c1cccc([N+](=O)[O-])c1)Nc1ccccn1
4,> 41.9,CCCNC(=O)CSc1nccn1Cc1ccco1
5,42.6,Cc1ccccc1NC(=O)CCCNC(=O)c1ccc(Cl)cc1
6,< 0.3,O=C(Nc1ccccn1)c1sc2cccc(F)c2c1Cl
7,1.7,O=[N+]([O-])c1ccccc1Nc1nc(-c2cccnc2)cs1
8,0.8,O=C(Nc1cccc(Cl)c1)c1cc(-c2ccco2)on1
9,6,O=C(NCCc1ccc(F)cc1)c1cccc(NC(=O)c2ccccc2)c1
10,36.9,O=C(Nc1cccnc1)c1ccc2ccccc2c1O
11,32.9,O=C(CCCc1ccccc1)NCc1ccccc1Cl
12,> 49.9,COc1ccc(CCNC(=O)CSc2ccccn2)cc1OC
13,1.4,COc1ccc(CNc2nc3ccccc3s2)cc1OC
14,> 40.6,Cc1cc(C)nc(SCc2cn3ccccc3n2)n1
15,> 38.7,O=C(CCNC(=O)c1ccco1)Nc1ccccc1
16,3.2,O=C(NC(=S)NCc1ccccc1Cl)c1cccs1
17,> 48.4,Cn1cnc(S(=O)(=O)Nc2ccccc2N2CCOCC2)c1
18,39.6,CSc1nsc(SCC(=O)Nc2ccc(F)cc2)n1
19,> 48.5,Cn1c(COc2ccc([N+](=O)[O-])cc2)nnc1SCC(N)=O
20,> 61.8,CN(CC(=O)N(C)CC(=O)Nc1c(Cl)cccc1Cl)Cc1ccccc1F
21,2.3,Cc1cccc(C(=O)O/N=C(\N)Cc2cccc3ccccc23)c1
22,38.4,O=C(NCc1ccccc1Cl)[C@@H]1CCCN1S(=O)(=O)c1ccc(Cl)cc1
23,2.8,CCC(=O)c1c[nH]c(C(=O)NCc2ccccc2OC)c1
24,> 58.5,CC(C(=O)Nc1ccc2c(c1)OCO2)N(C)CC(=O)Nc1ccccc1Cl (stereo unspecified)
25,30.1,Cc1cc(Br)ccc1NC(=O)CSCc1c(C)noc1C

row,solubility kinetic [µg/mL],Structure (SMILES)
1,7.3,CC1CCN(C(=O)c2ccc(-c3ccccc3Cl)o2)CC1
2,> 33.2,O=C(Nc1nccs1)c1ccc[nH]c1=O
3,> 39.9,Cn1cnnc1SCC(=O)Nc1ccccc1F
4,12.5,O=C(/C=C/c1ccc(F)cc1)N1CCc2ccccc2C1
5,36.6,Cc1ccc(Cl)c(NC(=O)CN2CCN(C=O)CC2)c1
6,1.1,Cc1onc(-c2ccccc2)c1C(=O)NCc1cccc(Cl)c1
7,> 56.6,CCCCN1C(C(=O)Nc2cc(C)on2)=C(O)c2ccccc2S1(=O)=O
8,> 61.6,O=C(CSc1ccc(F)cc1)Nc1cccc(S(=O)(=O)N2CCOCC2)c1
9,> 52.3,CCNC(=O)CC1C(=O)N(CC)C(=S)N1NC(=O)c1ccccc1 (stereo unspecified)
10,> 53.6,CSc1nsc(SCC(=O)Nc2ccc(O)c(C(=O)O)c2)n1
11,3.1,Cc1ccc2c(N)c(C(=O)c3ccccc3)sc2n1
12,> 47.7,O=C(Nc1ccccc1N1CCOCC1)c1ccc(Cl)nc1
13,> 56.3,O=C(CSc1nc(-c2ccccc2)cs1)NCCCN1CCCC1=O
14,> 55.9,CCCCn1c(SCC(=O)Nc2cc(C)on2)nnc1-c1ccncc1
15,24.1,Cc1ccc(-c2nc3ccccc3c(=O)n2O)cc1
16,5.6,Cc1cccc2sc(NC(=O)CCNC(=O)c3ccco3)nc12
17,26,CC(=O)Nc1cccc(NC(=S)Nc2cccc(Cl)c2Cl)c1
18,> 41.9,COc1ccc(-n2ccnc2SCC(=O)NO)cc1
19,40.8,O=C(CN1CCN(c2ccccc2F)CC1)NCc1ccccc1
20,29.1,CC(=O)Nc1ccccc1C(=O)C(=O)Nc1cccc(Br)c1
21,44.5,COCCSc1ccccc1C(=O)N1CCc2ccccc21
22,10.3,COc1ccccc1NC(=O)c1ccc(NC(=O)C2CC2C)cc1 (stereo unspecified)
23,39.5,Cl.NC(=S)NC(c1ccccc1)c1ccncc1 (stereo unspecified)
24,> 56.6,COCC(C)n1c(SCC(=O)N2CCOCC2)nc2ccccc2c1=O (stereo unspecified)
25,32.9,COc1cccc(NC(=O)c2cncs2)c1
